Among the test systems are SF-268 CNS; HT29 colon; NCI/ADR-RES ovarian; NCI-H226 lung; TK-10 renal; EKVX NSCLC; HL-60(TB) leukemia; SK-MEL-2 melanoma; SK-MEL-5 melanoma; ACHN renal.
What all share (assay): growth of human tumour cells (NCI), 48 h

Each structure is given as a SMILES string.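 How tested: cells in 96-well plates exposed to compound for 48 hours at five concentrations. GI50 = concentration required for 50% inhibition of growth. TGI: concentration producing complete growth inhibition.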

Turning to `O=C(CC(=O)N1N=C(N(c2ccccc2)c2ccccc2)CC1c1ccccc1)Nc1cccc(Cl)c1` (centres undefined), the TGI in the assay with SF-268 CNS, in the assay on HT29 colon, in the assay with NCI/ADR-RES ovarian, in the assay on NCI-H226 lung, in the assay on TK-10 renal and in the assay on EKVX NSCLC was > 100 µM throughout. The TGI in the assay with HL-60(TB) leukemia, in the assay with SK-MEL-2 melanoma, in the assay with SK-MEL-5 melanoma and in the assay on ACHN renal was > 100 µM in each case.
On to `COc1ccc(C=O)cc1OS(=O)(=O)C(F)(F)C(F)(F)C(F)(F)C(F)(F)F`, for which the TGI with SF-268 CNS is > 100 µM; in the assay with HT29 colon, > 90.5 µM; in the assay on NCI/ADR-RES ovarian, 58.3 µM; with NCI-H226 lung, > 100 µM; with TK-10 renal it was > 82.9 µM; in the assay on EKVX NSCLC it was > 82.6 µM. Further, the TGI with HL-60(TB) leukemia was 21.8 µM; in the assay on SK-MEL-2 melanoma it was 43.9 µM; with SK-MEL-5 melanoma, 30.8 µM; in the assay on ACHN renal it was > 100 µM.
Turning to `C=C(C)[C@H]1CC(=O)[C@@]2(C)C[C@H]3O[C@]3(C)CC/C=C(\C)CC[C@H]12`, the TGI was > 100 µM with SF-268 CNS; > 100 µM in the assay with HT29 colon; > 100 µM in the assay on NCI/ADR-RES ovarian; > 100 µM with NCI-H226 lung; 71.1 µM with TK-10 renal; > 100 µM in the assay on EKVX NSCLC. The TGI is 75.2 µM in the assay on HL-60(TB) leukemia, > 100 µM in the assay on SK-MEL-2 melanoma, 95.6 µM with SK-MEL-5 melanoma and > 100 µM in the assay on ACHN renal.
Consider `COc1cc(N(CCCl)CCCl)ccc1/C=N\NC(=O)c1cccnc1`, for which the GI50 in the assay on SF-268 CNS is 36.6 µM; with HT29 colon, 34.8 µM; in the assay on NCI/ADR-RES ovarian it was 24.9 µM; with NCI-H226 lung, 1.72 µM; in the assay with TK-10 renal it was 16.9 µM; with EKVX NSCLC it was 31.2 µM. Also, the GI50 is 11.4 µM in the assay with HL-60(TB) leukemia, 28 µM in the assay on SK-MEL-2 melanoma, 16.4 µM in the assay with SK-MEL-5 melanoma and 17 µM in the assay on ACHN renal. Moreover, the TGI in the assay on SF-268 CNS was > 100 µM; in the assay with HT29 colon it was > 100 µM; in the assay on NCI/ADR-RES ovarian, > 100 µM; in the assay with NCI-H226 lung, 9.47 µM; in the assay with TK-10 renal, 53.5 µM; with EKVX NSCLC it was 87.5 µM. Further, the TGI in the assay with HL-60(TB) leukemia is 40.4 µM; in the assay with SK-MEL-2 melanoma, 62 µM; in the assay on SK-MEL-5 melanoma, 36 µM; in the assay on ACHN renal it was > 100 µM.
Consider `Cn1c(=O)c2c(=O)cc(N)[nH]c2n(C)c1=O`, for which the TGI in the assay on SF-268 CNS, in the assay on HT29 colon, in the assay on NCI/ADR-RES ovarian, in the assay on NCI-H226 lung, in the assay on TK-10 renal and in the assay with EKVX NSCLC was > 100 µM throughout. The TGI in the assay with HL-60(TB) leukemia, in the assay with SK-MEL-2 melanoma, with SK-MEL-5 melanoma and in the assay with ACHN renal was > 100 µM throughout.
Regarding `C=C(C)COc1cc(NC(=S)OC(C)C)ccc1Cl`, the TGI was determined as 40.6 µM in the assay on SF-268 CNS; 28.4 µM with HT29 colon; 30.1 µM with NCI/ADR-RES ovarian; 32.7 µM with NCI-H226 lung; 29.3 µM in the assay on TK-10 renal; 24.8 µM in the assay on EKVX NSCLC. The TGI in the assay on HL-60(TB) leukemia worked out at 35.9 µM; in the assay on SK-MEL-2 melanoma it was 27.2 µM; in the assay on SK-MEL-5 melanoma, 38.4 µM; in the assay on ACHN renal it was 31.1 µM.
As for `CC(=O)OCC1OC(O[C@H]2C=C[C@@H](C(=O)OCc3ccccc3)n3c(=O)n(-c4ccccc4)c(=O)n32)C(OC(C)=O)C(OC(C)=O)C1OC(C)=O` (some centres undefined), the TGI in the assay on SF-268 CNS is 4.23 µM; in the assay with HT29 colon it was 3.49 µM; in the assay with NCI/ADR-RES ovarian, > 100 µM; in the assay with NCI-H226 lung, 12.5 µM; in the assay on TK-10 renal it was 3.92 µM; with EKVX NSCLC, 3.9 µM. Moreover, the TGI in the assay with HL-60(TB) leukemia is > 100 µM; with SK-MEL-2 melanoma, 10.1 µM; with SK-MEL-5 melanoma, 5.66 µM; with ACHN renal, 3.09 µM.
In the case of `Nc1ncnc2c1ccn2-c1cccc(NC(=O)c2ccc(N3CCOCC3)c(C(F)(F)F)c2)c1`, the GI50 is 3.44 µM with SF-268 CNS; 3 µM in the assay on HT29 colon; 2.93 µM in the assay with NCI/ADR-RES ovarian; 3.51 µM in the assay with NCI-H226 lung; 1.92 µM in the assay on TK-10 renal; 3.2 µM with EKVX NSCLC. Further, the GI50 in the assay with HL-60(TB) leukemia was 3.17 µM; with SK-MEL-2 melanoma it was 1.83 µM; with SK-MEL-5 melanoma it was 2.56 µM; in the assay with ACHN renal, 2.88 µM. The TGI in the assay on SF-268 CNS was 13.1 µM; in the assay on HT29 colon, 12.3 µM; in the assay on NCI/ADR-RES ovarian, 23.4 µM; with NCI-H226 lung it was 14.3 µM; in the assay with TK-10 renal it was 6.04 µM; in the assay on EKVX NSCLC, 22.1 µM. The TGI amounted to 8.07 µM with HL-60(TB) leukemia, 5.1 µM with SK-MEL-2 melanoma, 13.2 µM with SK-MEL-5 melanoma and 10.5 µM in the assay with ACHN renal.
For the compound `O=C(NC(OCc1ccccc1)(C(F)(F)F)C(F)(F)F)OCc1ccccc1`, the TGI with SF-268 CNS came out at 32.2 µM; in the assay on HT29 colon it was 32.2 µM; in the assay on NCI/ADR-RES ovarian, 26.3 µM; in the assay with NCI-H226 lung it was 27.7 µM; in the assay on TK-10 renal it was 20.9 µM; with EKVX NSCLC it was 28.7 µM. In addition, the TGI was 40.8 µM in the assay with HL-60(TB) leukemia, 28.7 µM in the assay with SK-MEL-2 melanoma, 29.3 µM in the assay on SK-MEL-5 melanoma and 29.2 µM with ACHN renal.
Consider `COc1ccc2nc3cc(Cl)ccc3c(NCCCCCC(=O)NC(COc3ccc4ccc5cccnc5c4n3)COc3ccc4ccc5cccnc5c4n3)c2c1`, for which the TGI with SF-268 CNS is 34.9 µM; with HT29 colon, > 100 µM; in the assay on NCI/ADR-RES ovarian, 73.7 µM; in the assay on NCI-H226 lung, 35.1 µM; with TK-10 renal it was 32 µM; in the assay on EKVX NSCLC, 58 µM. Also, the TGI in the assay with HL-60(TB) leukemia is 27.2 µM; with SK-MEL-2 melanoma, 45.1 µM; in the assay on SK-MEL-5 melanoma it was 30.4 µM; with ACHN renal, 28.9 µM.
Consider `C=C1CC[C@@H]2[C@](C)(COC(=O)CCC(=O)O)CCC[C@@]2(C)[C@@H]1CCC1=CC(=O)OC1`, for which the TGI in the assay on SF-268 CNS, with HT29 colon, in the assay on NCI/ADR-RES ovarian, with NCI-H226 lung, in the assay on TK-10 renal and in the assay on EKVX NSCLC was > 100 µM each time. Moreover, the TGI in the assay with HL-60(TB) leukemia, in the assay with SK-MEL-2 melanoma, in the assay on SK-MEL-5 melanoma and in the assay on ACHN renal was > 100 µM in each case.
`COC(=O)c1c2c(cc3c1CC1(C3)Cc3cc4c(c(C(=O)OC)c3C1)CCC4)CCC2`: the TGI in the assay with HT29 colon, with NCI/ADR-RES ovarian, with NCI-H226 lung, in the assay with TK-10 renal, with EKVX NSCLC and with HL-60(TB) leukemia was > 100 µM throughout. Also, the TGI in the assay on SK-MEL-2 melanoma, in the assay on SK-MEL-5 melanoma and in the assay with ACHN renal was > 100 µM in each case.
